Results as given in PMC9740910, “Influence of Degree of Polymerization of Low-Molecular-Weight Chitosan Oligosaccharides on the α-Glucosidase Inhibition” (Molecules, 2022).

Target: Saccharomyces cerevisiae α-glucosidase (Saccharomyces cerevisiae, UniProt P53341)
Test: Inhibition kinetic of α-glucosidase (Lineweaver–Burk and Michaelis–Menten fits)
Format: biochemical
Method: The data were fitted into both the Lineweaver–Burk and the Michaelis–Menten equation to determine the inhibition mode of the α-glucosidase for each of the COS mixtures.
The kinetic parameters, i.e., KM, Vmax, and the kinetic constants (Ki and Kii), were determined by fitting the data into the Michaelis–Menten equation [40] using the GraphPad Prism 8.0 software programs (GraphPad Inc., La Jolla, CA, USA) for Windows. The Michaelis–Menten equation, which expresses a relationship between the substrate concentration and the reaction velocity is given as follows:(3) V=Vmax [S]/ KM(1+[I]/Ki)+[S](1+[I]/Kii) where Ki represents the kinetic binding constants of the free enzymes, Kii represents the kinetic binding constant of the enzyme–substrate complex, V represents the velocity, Vmax represents the maximum velocity, KM represents the Michaelis’ constant, [S] represents the substrate concentration, and [I] represents the inhibitor concentration. The α values were calculated to determine the inhibition modes and the inhibitor binding preference.

Saccharomyces cerevisiae α-glucosidase, sequence (P53341 whole entry): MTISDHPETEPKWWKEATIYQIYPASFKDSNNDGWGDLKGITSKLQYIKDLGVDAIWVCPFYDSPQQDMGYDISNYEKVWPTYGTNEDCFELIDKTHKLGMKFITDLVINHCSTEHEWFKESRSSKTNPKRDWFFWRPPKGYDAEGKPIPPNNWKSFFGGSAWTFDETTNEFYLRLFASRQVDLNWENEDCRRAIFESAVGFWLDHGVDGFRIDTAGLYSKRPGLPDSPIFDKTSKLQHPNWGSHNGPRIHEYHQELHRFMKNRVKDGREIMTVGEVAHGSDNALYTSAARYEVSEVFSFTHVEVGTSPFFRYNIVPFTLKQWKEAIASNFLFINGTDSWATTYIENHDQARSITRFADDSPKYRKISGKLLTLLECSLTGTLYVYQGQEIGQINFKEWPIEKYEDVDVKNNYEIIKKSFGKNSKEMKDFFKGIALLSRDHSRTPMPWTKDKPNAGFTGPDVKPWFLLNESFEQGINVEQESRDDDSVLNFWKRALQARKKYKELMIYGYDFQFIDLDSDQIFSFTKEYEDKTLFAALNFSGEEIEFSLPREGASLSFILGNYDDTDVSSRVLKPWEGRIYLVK

SMILES: C[C@H]1O[C@H](O[C@H]2[C@H](O)[C@@H](O)[C@@H](O[C@H]3[C@H](O)[C@@H](O)C(O)O[C@@H]3CO)O[C@@H]2CO)[C@H](O)[C@@H](O)[C@@H]1N[C@H]1C=C(CO)[C@@H](O)[C@H](O)[C@H]1O (some centres unmarked) [Acarbose, acarbose]
- Type of Inhibition: Competitive
- α value from mixed-mode inhibition: 1.86
